# Experimental data from ChEMBL document CHEMBL2074259, “Mouse reduced in osteosclerosis transporter functions as an organic anion transporter 3 and is localized at abluminal membrane of blood-brain barrier” (J Pharmacol Exp Ther, 2004).
# Structures can show the parent of a compound that is named as a salt.
# B1: Organic anion transporter 3 (Mus musculus) (protein)
# chain: MTFSEILDRVGSMGPFQYLHVTLLALPILGIANHNLLQIFTATTPDHHCRPPPNASLEPWVLPLGPNGKPEKCLRFVHLPNASLPNDTQGATEPCLDGWIYNSTRDTIVTEWDLVCGSNKLKEMAQSVFMAGILVGGPVFGELSDRFGRKPILTWSYLLLAASGSSAAFSPSLTVYMIFRFLCGCSISGISLSTIILNVEWVPTSTRAISSTTIGYCYTIGQFILPGLAYAVPQWRWLQLSVSAAFFIFSLLSWWVPESIRWLVLSGKFSKALKTLQRVATFNGKKEEGEKLTVEELKFNLQKDITSAKVKYGLSDLFRVSILRRVTFCLSLAWFATGFAYYSLAMGVEEFGVNIYILQIIFGGVDIPAKFITILSISYLGRRITQGFLLILAGVAILALIFVSSEMQLLRTALAVFGKGCLSGSFSCLFLYTSELYPTVLRQTGMGISNIWARVGSMIAPLVKITGELQPFIPNVIFGTMTLLGGSAAFFLLETLNRPLPETIEDIQDWYQQTKKTKQEPEAEKASQTIPLKTGGP
# Tests used:
# [1] = target: T1, Oat3 (organic anion transporter 3) (Mus musculus, UniProt O88909); experiment: TP_TRANSPORTER: inhibition of benzylpenicillin uptake by Pravastatin at a concentration of 1000uM in Oat3-expressing oocyte cells; format: functional, cell-based; set-up: scale not given: the % may be the effect or the level left; conditions: Oat3-expressing oocytes, probe benzylpenicillin; read-out: Activity
# T1 sequence (O88909 whole entry): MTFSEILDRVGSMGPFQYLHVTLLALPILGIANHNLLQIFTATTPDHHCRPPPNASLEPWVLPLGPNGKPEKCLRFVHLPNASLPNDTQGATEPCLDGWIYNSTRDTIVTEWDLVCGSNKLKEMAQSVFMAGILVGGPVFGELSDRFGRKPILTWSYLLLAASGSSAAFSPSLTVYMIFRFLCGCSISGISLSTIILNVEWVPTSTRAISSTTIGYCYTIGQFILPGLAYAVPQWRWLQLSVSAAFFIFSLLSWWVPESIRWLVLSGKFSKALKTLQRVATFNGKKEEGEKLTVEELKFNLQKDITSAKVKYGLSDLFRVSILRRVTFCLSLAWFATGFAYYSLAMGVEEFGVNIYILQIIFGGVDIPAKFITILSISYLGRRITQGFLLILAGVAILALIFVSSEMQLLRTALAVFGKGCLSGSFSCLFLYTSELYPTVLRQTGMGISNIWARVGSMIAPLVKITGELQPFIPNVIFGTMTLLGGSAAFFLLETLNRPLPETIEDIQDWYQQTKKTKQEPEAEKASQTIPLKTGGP
# [2] = target: T2, Organic anion transporter 3 (Mus musculus, UniProt O88909); experiment: TP_TRANSPORTER: inhibition of benzylpenicillin uptake by Estradiol sulfate at a concentration of 5uM in Oat3-expressing oocyte cells; format: functional, cell-based; set-up: scale not given: the % may be the effect or the level left
# T2 sequence (O88909 whole entry): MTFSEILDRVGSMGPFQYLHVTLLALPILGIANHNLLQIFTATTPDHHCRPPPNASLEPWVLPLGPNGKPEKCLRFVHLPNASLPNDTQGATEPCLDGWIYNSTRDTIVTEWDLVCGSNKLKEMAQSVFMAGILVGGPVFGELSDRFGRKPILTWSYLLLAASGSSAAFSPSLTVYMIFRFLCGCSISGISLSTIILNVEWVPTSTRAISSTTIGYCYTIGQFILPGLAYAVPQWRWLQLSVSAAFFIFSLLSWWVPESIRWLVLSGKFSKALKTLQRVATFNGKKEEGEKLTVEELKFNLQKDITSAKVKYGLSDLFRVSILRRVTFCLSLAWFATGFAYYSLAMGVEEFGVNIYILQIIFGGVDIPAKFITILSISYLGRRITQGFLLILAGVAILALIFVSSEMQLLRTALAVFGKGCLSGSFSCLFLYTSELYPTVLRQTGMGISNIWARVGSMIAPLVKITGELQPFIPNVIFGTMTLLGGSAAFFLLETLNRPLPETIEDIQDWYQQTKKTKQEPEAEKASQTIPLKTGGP
# [3] = target: T2, Organic anion transporter 3; experiment: TP_TRANSPORTER: inhibition of benzylpenicillin uptake by 3'-Azido-3'-deoxythymidine at a concentration of 1000uM in Oat3-expressing oocyte cells; format: functional, cell-based; set-up: scale not given: the % may be the effect or the level left
# [4] = target: T2, Organic anion transporter 3; experiment: TP_TRANSPORTER: inhibition of benzylpenicillin uptake by Bromosulfophthalein at a concentration of 1000uM in Oat3-expressing oocyte cells; format: functional, cell-based; set-up: scale not given: the % may be the effect or the level left
# [5] = target: T2, Organic anion transporter 3; experiment: TP_TRANSPORTER: inhibition of benzylpenicillin uptake in Oat3-expressing oocyte cells; format: functional, cell-based; set-up: scale not given: the % may be the effect or the level left
# [6] = target: T1, Oat3 (organic anion transporter 3); experiment: TP_TRANSPORTER: inhibition of benzylpenicillin uptake by Urate at a concentration of 1000uM in Oat3-expressing oocyte cells; format: functional, cell-based; set-up: scale not given: the % may be the effect or the level left; conditions: Oat3-expressing oocytes, probe benzylpenicillin; read-out: Activity
# [7] = target: T2, Organic anion transporter 3; experiment: (§1) TP_TRANSPORTER: uptake in Oat3-expressing oocyte cells; format: functional, cell-based
# [8] = target: T2, Organic anion transporter 3; experiment: TP_TRANSPORTER: inhibition of benzylpenicillin uptake by Methotrexate at a concentration of 1000uM in Oat3-expressing oocyte cells; format: functional, cell-based; set-up: scale not given: the % may be the effect or the level left
# [9] = target: T2, Organic anion transporter 3; experiment: TP_TRANSPORTER: inhibition of benzylpenicillin uptake by P-aminohippuric acid at a concentration of 1000uM in Oat3-expressing oocyte cells; format: functional, cell-based; set-up: scale not given: the % may be the effect or the level left
# [10] = target: T1, Oat3 (organic anion transporter 3); experiment: TP_TRANSPORTER: inhibition of benzylpenicillin uptake by Triiodothyronine at a concentration of 1000uM in Oat3-expressing oocyte cells; format: functional, cell-based; set-up: scale not given: the % may be the effect or the level left; conditions: Oat3-expressing oocytes, probe benzylpenicillin; read-out: Activity
# [11] = target: T1, Oat3 (organic anion transporter 3); experiment: TP_TRANSPORTER: inhibition of benzylpenicillin uptake by Indoxyl sulfate at a concentration of 1000uM in Oat3-expressing oocyte cells; format: functional, cell-based; set-up: scale not given: the % may be the effect or the level left; conditions: Oat3-expressing oocytes, probe benzylpenicillin; read-out: Activity
# [12] = target: T1, Oat3 (organic anion transporter 3); experiment: TP_TRANSPORTER: inhibition of benzylpenicillin uptake by Estradiol glucuronide sulfate at a concentration of 5uM in Oat3-expressing oocyte cells; format: functional, cell-based; set-up: scale not given: the % may be the effect or the level left; conditions: Oat3-expressing oocytes, probe benzylpenicillin; read-out: Activity
# [13] = target: T2, Organic anion transporter 3; experiment: TP_TRANSPORTER: inhibition of benzylpenicillin uptake by Probenecid at a concentration of 1000uM in Oat3-expressing oocyte cells; format: functional, cell-based; set-up: scale not given: the % may be the effect or the level left
# [14] = target: T2, Organic anion transporter 3; experiment: TP_TRANSPORTER: inhibition of benzylpenicillin uptake by Prostaglandin E2 at a concentration of 1000uM in Oat3-expressing oocyte cells; format: functional, cell-based; set-up: scale not given: the % may be the effect or the level left
# [15] = target: T2, Organic anion transporter 3; experiment: TP_TRANSPORTER: inhibition of benzylpenicillin uptake by Indomethacin at a concentration of 1000uM in Oat3-expressing oocyte cells; format: functional, cell-based; set-up: scale not given: the % may be the effect or the level left
# [16] = target: T1, Oat3 (organic anion transporter 3); experiment: in vitro; conditions: Oat3-expressing oocytes, probe benzylpenicillin
# [17] = target: T2, Organic anion transporter 3; experiment: TP_TRANSPORTER: inhibition of benzylpenicillin uptake by 5-Hydroxyindole-3-acetic acid at a concentration of 1000uM in Oat3-expressing oocyte cells; format: functional, cell-based; set-up: scale not given: the % may be the effect or the level left
# [18] = target: T2, Organic anion transporter 3; experiment: TP_TRANSPORTER: inhibition of benzylpenicillin uptake by Estrone-3-sulfate at a concentration of 1000uM in Oat3-expressing oocyte cells; format: functional, cell-based; set-up: scale not given: the % may be the effect or the level left
# [19] = target: T2, Organic anion transporter 3; experiment: TP_TRANSPORTER: inhibition of benzylpenicillin uptake by Homovanillic acid at a concentration of 1000uM in Oat3-expressing oocyte cells; format: functional, cell-based; set-up: scale not given: the % may be the effect or the level left
# [20] = substrate: CC1(C)S[C@@H]2[C@H](NC(=O)Cc3ccccc3)C(=O)N2[C@H]1C(=O)O; experiment: as §1; format: functional, cell-based
# [21] = substrate: C[C@]12CC[C@@H]3c4ccc(O)cc4CC[C@H]3[C@@H]1CC[C@@H]2O[C@@H]1O[C@H](C(=O)O)[C@@H](O)[C@H](O)[C@H]1O; experiment: as §1; format: functional, cell-based
molecule,measurement,setting,value
CC[C@H](C)C(=O)O[C@H]1C[C@H](O)C=C2C=C[C@H](C)[C@H](CC[C@@H](O)C[C@@H](O)CC(=O)O)[C@H]21 [PRAVASTATIN],activity at 1000 µM,[1],2.85%
C[C@]12CC[C@@H]3c4ccc(O)cc4CC[C@H]3[C@@H]1CC[C@H]2O.O=S(=O)(O)O,Activity,[2],65.5%
Cc1cn([C@H]2C[C@H](N=[N+]=[N-])[C@@H](CO)O2)c(=O)[nH]c1=O [ZIDOVUDINE],Activity,[3],5.13%
O=C1OC(c2ccc(O)c(S(=O)(=O)[O-])c2)(c2ccc(O)c(S(=O)(=O)[O-])c2)c2c(Br)c(Br)c(Br)c(Br)c21.[Na+].[Na+] [SULFOBROMOPHTHALEIN SODIUM],Activity,[4],2.54%
O=C(O)[C@H]1O[C@@H](Oc2c[nH]c3ccccc23)[C@H](O)[C@@H](O)[C@@H]1O [INDOXYL GLUCURONIDE],Activity,[5],72.3%
O=c1[nH]c(=O)c2[nH]c(=O)[nH]c2[nH]1 [URIC ACID],activity at 1000 µM,[6],19.9%
CN(Cc1cnc2nc(N)nc(N)c2n1)c1ccc(C(=O)N[C@@H](CCC(=O)O)C(=O)O)cc1 [METHOTREXATE],Activity,[7],substrate []
same,Activity,[8],48.4%
Nc1ccc(C(=O)NCC(=O)O)cc1 [AMINOHIPPURIC ACID],Activity,[7],substrate []
same,Activity,[9],14.2%
N[C@@H](Cc1cc(I)c(Oc2ccc(O)c(I)c2)c(I)c1)C(=O)O [LIOTHYRONINE],activity at 1000 µM,[10],39.8%
O=S(=O)(O)Oc1c[nH]c2ccccc12 [INDOXYL SULFATE],Activity,[7],substrate []
same,activity at 1000 µM,[11],21.9%
C[C@]12CC[C@@H]3c4ccc(OS(=O)(=O)O)cc4CC[C@H]3[C@@H]1CC[C@@H]2O[C@@H]1O[C@H](C(=O)O)[C@@H](O)[C@H](O)[C@H]1O [ESTRADIOL GLUCURONIDE SULFATE],activity at 5 µM,[12],62.4%
CCCN(CCC)S(=O)(=O)c1ccc(C(=O)O)cc1 [PROBENECID],Activity,[13],0.625%
CCCCC[C@H](O)/C=C/[C@H]1[C@H](O)CC(=O)[C@@H]1C/C=C\CCCC(=O)O [DINOPROSTONE],Activity,[14],0.101%
COc1ccc2c(c1)c(CC(=O)O)c(C)n2C(=O)c1ccc(Cl)cc1 [INDOMETHACIN],Activity,[7],substrate []
same,Activity,[15],1.32%
CN/C(=N/CCSCc1nc[nH]c1C)NC#N [CIMETIDINE],Activity,[7],substrate []
same,activity at 1000 µM,[16],6.88%
O=C(O)Cc1c[nH]c2ccc(O)cc12,Activity,[17],21.7%
C[C@]12CC[C@@H]3c4ccc(OS(=O)(=O)O)cc4CC[C@H]3[C@@H]1CCC2=O [ESTRONE SULFURIC ACID],Activity,[7],substrate []
same,Activity,[18],11.4%
O=C(O)CCCC(=O)O [GLUTARATE],Activity,[7],substrate []
COc1cc(CC(=O)O)ccc1O [HOMOVANILLIC ACID],Activity,[7],substrate []
same,Activity,[19],40.9%
O=C(O)c1ccccc1O [SALICYLIC ACID],Activity,[7],substrate []
B1,Km,[20],40 µM
same,Km,[21],5.5 µM
